Series [1] deals with σ1 receptors. The series is described as follows: Antisense oligodeoxynucleotide (i.c.v.) against locomotor stimulatory effects of cocaine. The series is classed as in vivo, mouse.
For series [2], the system named is σ1 receptors. The series is described as follows: Antisense oligodeoxynucleotide (i.c.v.) against cocaine-induced convulsions. The class given is in vivo, mouse.
Series [3] relates to σ1 receptors. Kind of series: Antisense oligodeoxynucleotide (i.c.v.), basal locomotor activity. The class given is in vivo, mouse. The settings on record: i.c.v. antisense treatment, 30 min before the cocaine challenge.
The subject of series [4] is rat red nucleus. The series is described as follows: Acute dystonic reaction after microinjection into the rat red nucleus. The series is classed as in vivo. The settings on record: alone and against sigma agonists such as DTG.
Series [5] addresses T1, σ2 sites (Rattus norvegicus, UniProt Q5U3Y7).
T1 construct: Crude P2 membranes were prepared from guinea pig brain, rat brain, or rat liver; from tissue; host or cells: rat liver (crude P2 membranes)
T1 sequence (Q5U3Y7 1-176): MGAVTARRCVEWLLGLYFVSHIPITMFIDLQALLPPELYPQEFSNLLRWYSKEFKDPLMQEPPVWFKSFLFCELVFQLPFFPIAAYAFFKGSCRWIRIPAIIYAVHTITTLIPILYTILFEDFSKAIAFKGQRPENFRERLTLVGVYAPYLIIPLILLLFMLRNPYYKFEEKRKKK
Kind of series: σ2 receptor competition binding.

Series [6] has as its target T2, σ1 receptors (Cavia porcellus, UniProt Q60492).
T2 construct: Crude P2 membranes were prepared from guinea pig brain, rat brain, or rat liver; from tissue; host or cells: guinea pig brain (crude P2 membranes)
The series is described as follows: σ1 receptor competition binding. More on the design: species or system guinea pig. The settings on record: read-out: σ1.

Series [7] addresses 5-HT2 receptors (Rattus norvegicus, UniProt P14842). Kind of series: 5-HT2 receptor competition binding ([3H]ketanserin). The settings on record: rat brain homogenates, [3H]ketanserin; read-out: 5-HT2.
Series [8] concerns the target PCP sites on NMDA receptors (Rattus norvegicus, UniProt P35439). Kind of series: PCP site competition binding ([3H]TCP). The settings on record: rat brain homogenates, [3H]TCP; read-out: NMDA (PCP).
The target in series [9] is T3, Dopamine (D2) receptors (Rattus norvegicus, UniProt P61169).
T3 construct: from tissue; host or cells: rat brain homogenate / P2 membranes
The series is described as follows: Dopamine D2 receptor competition binding ([3H](−)sulpiride). The settings on record: rat brain homogenates, [3H](−)sulpiride; read-out: Dopamine (D2).

The subject of series [10] is Male, Swiss Webster mice. The series is described as follows: Effects of sigma ligands alone on baseline locomotor activity. The settings on record: 30 min; i.p. mg/kg: BD1008 1, BD1067 5, BD1047 30, LR172 5, BD1018 30, BD1063 30, LR132 30, LR176 10, YZ011 0.1, YZ027 1, YZ029 5. The class given is in vivo.
In series [11] the test system is Male, Swiss Webster mice. Kind of series: Attenuation of cocaine-induced locomotor activity. The series is classed as in vivo. The settings on record: same ligand doses as baseline test, 15 min before cocaine 10 mg/kg i.p.; 30 min; ANOVA.
[12] abbreviates: NYU sequences, 10 μg/5 μl i.c.v. on Days 1, 2 and 4, cocaine 60 mg/kg i.p. on Day 5.
The mark [13] stands for this setting: Table 1, [3H]DTG plus dextrallorphan, rat liver, mean±SEM, minimum of two independent assays.
[14] abbreviates: Table 5, dopamine transporter ligands.
Where [15] appears, read: Table 1, [3H](+)-pentazocine, guinea pig brain, mean±SEM, minimum of two independent assays.
The mark [16] stands for this setting: Table 4, second series, [3H]DTG plus dextrallorphan, rat liver.
[17] abbreviates: Table 4, second series, [3H](+)-pentazocine, guinea pig brain.

Like-named read-outs stand apart in the source and are kept apart here.

T3 sequence (P61169 whole entry): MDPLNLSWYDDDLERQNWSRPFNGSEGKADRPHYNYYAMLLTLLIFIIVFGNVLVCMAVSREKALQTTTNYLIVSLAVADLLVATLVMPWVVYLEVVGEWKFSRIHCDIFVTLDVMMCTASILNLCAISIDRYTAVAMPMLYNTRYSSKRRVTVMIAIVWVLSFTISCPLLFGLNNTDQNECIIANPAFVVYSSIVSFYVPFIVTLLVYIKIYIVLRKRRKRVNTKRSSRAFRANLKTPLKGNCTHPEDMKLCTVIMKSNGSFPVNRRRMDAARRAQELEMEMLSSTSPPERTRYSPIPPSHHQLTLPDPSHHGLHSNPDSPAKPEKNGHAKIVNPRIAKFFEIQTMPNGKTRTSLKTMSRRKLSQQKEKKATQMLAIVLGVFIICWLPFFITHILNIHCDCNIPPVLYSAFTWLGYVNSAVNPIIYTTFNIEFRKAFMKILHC
Chain of 5-HT2 receptors (P14842 whole entry): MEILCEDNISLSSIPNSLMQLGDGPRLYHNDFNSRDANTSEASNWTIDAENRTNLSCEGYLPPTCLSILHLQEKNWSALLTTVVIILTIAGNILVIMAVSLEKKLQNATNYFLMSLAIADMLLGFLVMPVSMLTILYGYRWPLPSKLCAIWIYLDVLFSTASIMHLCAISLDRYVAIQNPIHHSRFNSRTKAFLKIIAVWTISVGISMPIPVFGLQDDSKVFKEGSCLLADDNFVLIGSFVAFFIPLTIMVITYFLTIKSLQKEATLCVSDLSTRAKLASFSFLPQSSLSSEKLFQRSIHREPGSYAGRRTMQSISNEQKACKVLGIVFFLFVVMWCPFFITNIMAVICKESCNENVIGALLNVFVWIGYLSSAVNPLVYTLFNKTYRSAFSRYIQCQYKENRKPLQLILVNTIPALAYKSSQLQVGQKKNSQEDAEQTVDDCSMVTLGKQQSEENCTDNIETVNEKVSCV
T2 sequence (Q60492 whole entry): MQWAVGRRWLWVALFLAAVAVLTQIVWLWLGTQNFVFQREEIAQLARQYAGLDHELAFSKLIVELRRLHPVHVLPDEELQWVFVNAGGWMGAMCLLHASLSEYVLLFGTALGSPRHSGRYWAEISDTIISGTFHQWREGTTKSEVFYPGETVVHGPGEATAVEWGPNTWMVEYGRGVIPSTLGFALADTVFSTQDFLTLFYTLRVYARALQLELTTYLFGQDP

Take “5′-CCCACGGCATCCCAGCGG-3′ (all phosphorothioate, sugars by position and methylation of C not given here) [McGill antisense, 18-mer phosphorothioate antisense oligodeoxynucleotide targeting the 5′-end of the σ1 receptor (Kitaichi et al., 1997)]”: the “effect on locomotor stimulatory effects of cocaine” value in [1] (McGill, 10 nmol/5 μl i.c.v. every 12 hours, four times, cocaine 10 mg/kg i.p.) is on record as “attenuates the locomotor stimulatory effects of cocaine”. Besides, the “effect on cocaine-induced convulsions” value in [2] (McGill, 10 nmol/5 μl i.c.v. every 12 hours, four times, cocaine 60 mg/kg i.p. 12 hours after last) was “significant attenuation of cocaine-induced convulsions”. Also, the basal locomotor activity result in [3] is “no effects on basal locomotor activity”.
On to “5′-GAGGTCCCGACCACACACAGG-3′ (all phosphorothioate, sugars by position and methylation of C not given here) [mismatch]”, for which the “effect on cocaine-induced convulsions” value in [2] (setting [12]) is listed as “responses no different from the saline-treated animals”.
“5′-GAGTGCCCAGCCACAACCAGG-3′ (all phosphorothioate, sugars by position and methylation of C not given here) [NYU antisense, 21-mer phosphorothioate antisense oligodeoxynucleotide against mouse σ1 receptors (King et al., 1997)]”: the “effect on locomotor stimulatory effects of cocaine” value in series [1] (NYU, 10 μg/5 μl i.c.v. on Days 1, 2 and 4, cocaine 10 mg/kg i.p. on Day 5) is listed as “attenuates the locomotor stimulatory effects of cocaine”. The “effect on cocaine-induced convulsions” value in series [2] (setting [12]) was “protected against the convulsive effects of cocaine”. Also, the basal locomotor activity entry in series [3] is “no effects on basal locomotor activity”.
For `CC(C)=CCN1CCC2(C)c3cc(O)ccc3CC1C2C` (single isomer, unassigned; (+)) [(+)-Pentazocine, reference compound], the “agonist versus antagonist designation (dystonic head postures)” value in series [4] is given as “agonists”.
As to `CCCN(CCc1ccc(Cl)c(Cl)c1)CCN1CCCCC1` [BD1069], the “agonist versus antagonist designation (dystonic head postures)” value in series [4] is on record as “variable, partial agonist actions”. Also, the Ki in [5] (setting [13]) came to 545 ± 139 nM; in series [6], 1 ± 0.2 nM. Besides, the IC50 in series [7], in series [8] and in series [9] was more than 10000 nM in each case.
Consider `OC(CCCN1CCN(c2ncc(F)cn2)CC1)c1ccc(F)cc1` (centres unmarked) [BMY14802, reference compound], for which the Ki in series [5] (setting [13]) worked out at 51 ± 8 nM.
Consider `Fc1ccc(C(OCCN2CCN(CCCc3ccccc3)CC2)c2ccc(F)cc2)cc1` [GBR 12909, reference compound], for which the Ki in series [5] (setting [14]) came out at 133 ± 37 nM; in series [6] (setting [14]), 132 ± 31 nM.
In the case of `C[C@@H]1CN(CCCn2c3ccccc3c3ccccc32)C[C@H](C)N1` [Rimcazole, reference compound], in series [5] (setting [13]), the Ki turned out to be 1160 ± 160 nM.
On to `COc1cccc(CC(=O)N(C)CCN2CCCC2)c1` [YZ-005], for which the Ki in series [5] (setting [13]) stood at 1110 ± 55 nM; in series [6] (setting [15]) it was 3101 ± 20 nM. The IC50 in series [7], in series [8] and in [9] was more than 10000 nM each time.
Regarding `COc1ccc(CC(=O)N(C)CCN2CCCC2)cc1` [YZ-007], the Ki in [5] (setting [13]) worked out at 1220 ± 95 nM; in series [6] (setting [15]), 2220 ± 61 nM. Moreover, the IC50 in series [7], in series [8] and in series [9] was more than 10000 nM in each case.
In the case of `COc1ccccc1CC(=O)N(C)CCN1CCCC1` [YZ-008], the Ki in [5] (setting [13]) is 3170 ± 144 nM. Besides, the IC50 in [7], in [8] and in series [9] was more than 10000 nM each time.
For `CN(CCc1cccc([N+](=O)[O-])c1)CCN1CCCC1` [YZ-027], in series [10], the “baseline horizontal locomotor activity versus saline” value is listed as “no significant difference”. In series [11], the “cocaine stimulated locomotor activity after pre-treatment” value is “significant reduction in cocaine stimulated locomotor activity”. The Ki is 95 ± 0.7 nM in series [5] (setting [13]) and 6 ± 2 nM in [6] (setting [15]). The IC50 in series [7], in series [8] and in series [9] was more than 10000 nM each time.
As for `CN(CCc1ccccc1[N+](=O)[O-])CCN1CCCC1` [YZ-028], the figures for the Ki in [5] (setting [13]) and in series [6] (setting [15]) were 311 ± 4 nM and 8 ± 0.9 nM, respectively. In addition, the IC50 in series [7], in series [8] and in series [9] was more than 10000 nM throughout.
Regarding `CN(CCc1ccc([N+](=O)[O-])cc1)CCN1CCCC1` [YZ-029], the “baseline horizontal locomotor activity versus saline” value in [10] is reported as “no significant difference”. In addition, in series [11], the “cocaine stimulated locomotor activity after pre-treatment” value is “significant reduction in cocaine stimulated locomotor activity”. In addition, the Ki in series [5] (setting [13]) was determined as 63 ± 0.1 nM; in series [6] (setting [15]), 4 ± 0.9 nM. In addition, the IC50 in series [7], in [8] and in series [9] was more than 10000 nM in each case.
In the case of `CN(CCc1ccc(N)cc1)CCN1CCCC1` [YZ-030], the Ki in series [5] (setting [13]) is 973 ± 77 nM; in series [6] (setting [15]), 276 ± 13 nM. Besides, the IC50 in series [7], in series [8] and in series [9] was more than 10000 nM in each case.
Regarding `CN(CCc1ccccc1N)CCN1CCCC1` [YZ-032], the values for the Ki in [5] (setting [13]) and in series [6] (setting [15]) were 640 ± 25 nM and 291 ± 38 nM, respectively. In addition, the IC50 in series [7], in series [8] and in [9] was more than 10000 nM throughout.
As for `CN(CCc1cccc(N)c1)CCN1CCCC1` [YZ-033], the Ki in [5] (setting [13]) was found to be 2240 ± 260 nM; in series [6] (setting [15]), 579 ± 35 nM. Besides, the IC50 in series [7], in series [8] and in [9] was more than 10000 nM throughout.
As for `COc1ccccc1CC(=O)N1CCN(CCCc2ccccc2)CC1` [YZ-048-2], the Ki in series [5] (setting [13]) came out at 294 ± 10 nM; in [5] (setting [16]) it was 294 ± 10 nM; in series [6] (setting [15]), 56 ± 8 nM; in [6] (setting [17]) it was 56 ± 8 nM.
With `COc1ccc(CC(=O)N2CCN(CCCc3ccccc3)CC2)cc1` [YZ-051-2], the Ki is 464 ± 34 nM in series [5] (setting [13]), 464 ± 34 nM in series [5] (setting [16]), 13 ± 2 nM in series [6] (setting [15]) and 13 ± 2 nM in series [6] (setting [17]).
As to `COc1ccc(CCN2CCN(CCCc3ccccc3)CC2)cc1` [YZ-067-2], the Ki in [5] (setting [13]) worked out at 29 ± 2 nM; in [5] (setting [16]), 29 ± 2 nM; in [6] (setting [15]), 1 ± 0.3 nM; in [6] (setting [17]) it was 1 ± 0.3 nM.
On to `Clc1ccc(CCN2CCN(CCCc3ccccc3)CC2)cc1Cl` [YZ-069-2], for which the Ki was 39 ± 2 nM in series [5] (setting [13]), 39 ± 2 nM in [5] (setting [16]), 2 ± 0.2 nM in [6] (setting [15]) and 2 ± 0.2 nM in series [6] (setting [17]).
For the compound `COc1cccc(CCN2CCN(C(=O)Cc3cccc(OC)c3)CC2)c1` [YZ-085-2], the Ki in [5] (setting [13]) and in series [5] (setting [16]) was 12 ± 2 nM each time.
Take `NCCN1CCN(CCCc2ccccc2)CC1` [YZ-136-2]: the Ki came out at 188 ± 13 nM in series [5] (setting [13]), 188 ± 13 nM in series [5] (setting [16]), 3 ± 0.09 nM in [6] (setting [15]) and 3 ± 0.09 nM in series [6] (setting [17]).
Turning to `O=C(Cc1ccc([N+](=O)[O-])cc1)N1CCN(CCCc2ccccc2)CC1` [YZ-155-2], the Ki was determined as 167 ± 4 nM in series [5] (setting [13]), 167 ± 4 nM in series [5] (setting [16]), 14 ± 1 nM in series [6] (setting [15]) and 14 ± 1 nM in series [6] (setting [17]).
For `Nc1ccccc1CCN1CCN(CCCc2ccccc2)CC1` [YZ-165-2-2], the Ki was determined as 18 ± 0.2 nM in series [5] (setting [13]), 18 ± 0.2 nM in [5] (setting [16]), 5 ± 0.1 nM in series [6] (setting [15]) and 5 ± 0.1 nM in [6] (setting [17]).
On to `COc1ccccc1CCN1CCN(CCCc2ccccc2)CC1` [YZ-184-2], for which the Ki in [5] (setting [13]) and in series [5] (setting [16]) was 8 ± 0.2 nM in each case.

The values above are taken from patent US20030171347A1, “Sigma receptor antagonists having anti-cocaine properties and uses thereof” (priority 1998, published 2003).
